Assay results from the supplement of paper PMC10307832.

How the values were obtained:
Assay in all cases: relative viability (nuclei count vs DMSO), 5 days (fraction); higher = more cells survive
BI-D1870 + Foretinib = compound: CC(C)CCN1c2nc(Nc3cc(F)c(O)c(F)c3)ncc2N(C)C(=O)C1C [BI-D1870] + COc1cc2c(Oc3ccc(NC(=O)C4(C(=O)Nc5ccc(F)cc5)CC4)cc3F)ccnc2cc1OCCCN1CCOCC1 [Foretinib] (partner 0.25 µM)
Summary of the method: (§1)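 Relative viability is defined as nuclei in treated wells over nuclei in vehicle wells. Duplicate plates were run and medians reported. Lung cancer cell lines in 1536-well plates were dosed by pin tool one day after seeding, with one drug or with a fixed anchor-drug dose plus five library-drug doses (not always all listed) in √10 steps, and nuclei were counted after 5 days.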

BI-D1870 + Lapatinib = compound: CC(C)CCN1c2nc(Nc3cc(F)c(O)c(F)c3)ncc2N(C)C(=O)C1C [BI-D1870] + CS(=O)(=O)CCNCc1ccc(-c2ccc3ncnc(Nc4ccc(OCc5cccc(F)c5)c(Cl)c4)c3c2)o1 [Lapatinib] (partner 2 µM)
Summary of the method: as §1

Zebularine + OSI-027 = compound: O=c1ncccn1[C@@H]1O[C@H](CO)[C@@H](O)[C@H]1O [Zebularine] + COc1cccc2cc(-c3nc([C@H]4CC[C@H](C(=O)O)CC4)n4ncnc(N)c34)[nH]c12 [OSI-027] (partner 0.5 µM)
Summary of the method: as §1

Zebularine + AZD7762 = compound: O=c1ncccn1[C@@H]1O[C@H](CO)[C@@H](O)[C@H]1O [Zebularine] + NC(=O)Nc1cc(-c2cccc(F)c2)sc1C(=O)N[C@H]1CCCNC1 [AZD7762] (partner 0.2 µM)
Summary of the method: as §1

Cell Line | relative viability (BI-D1870 + Foretinib; first compound 0.04 µM) | relative viability (BI-D1870 + Foretinib; first compound 0.1265 µM) | relative viability (BI-D1870 + Foretinib; first compound 0.4 µM) | relative viability (BI-D1870 + Foretinib; first compound 1.265 µM) | relative viability (BI-D1870 + Foretinib; first compound 4 µM) | relative viability (BI-D1870 + Lapatinib; first compound 0.04 µM) | relative viability (BI-D1870 + Lapatinib; first compound 0.1265 µM) | relative viability (BI-D1870 + Lapatinib; first compound 0.4 µM) | relative viability (BI-D1870 + Lapatinib; first compound 1.265 µM) | relative viability (BI-D1870 + Lapatinib; first compound 4 µM) | relative viability (Zebularine + OSI-027; first compound 1 µM) | relative viability (Zebularine + OSI-027; first compound 3.162 µM) | relative viability (Zebularine + OSI-027; first compound 10 µM) | relative viability (Zebularine + OSI-027; first compound 31.62 µM) | relative viability (Zebularine + OSI-027; first compound 100 µM) | relative viability (Zebularine + AZD7762; first compound 1 µM) | relative viability (Zebularine + AZD7762; first compound 3.162 µM) | relative viability (Zebularine + AZD7762; first compound 10 µM) | relative viability (Zebularine + AZD7762; first compound 31.62 µM) | relative viability (Zebularine + AZD7762; first compound 100 µM)
NCI-H1944 | 0.992 | 0.799 | 0.848 | 1.04 | 0.973 | 0.932 | 0.669 | 0.659 | 0.835 | 0.768 | 0.445 | 0.466 | 0.385 | 0.434 | 0.421 | 0.598 | 0.537 | 0.451 | 0.525 | 0.258
NCI-H1975 | 0.996 | 0.849 | 0.884 | 0.912 | 0.847 | 1.1 | 0.865 | 0.858 | 0.863 | 0.464 | 0.845 | 0.695 | 0.383 | 0.335 | 0.23 | 0.747 | 0.748 | 0.549 | 0.499 | 0.345
NCI-H1993 | 0.777 | 0.659 | 0.715 | 0.784 | 0.842 | 0.855 | 0.774 | 0.88 | 0.809 | 0.789 | 0.532 | 0.545 | 0.52 | 0.543 | 0.498 | 0.76 | 0.881 | 0.625 | 0.671 | 0.493
NCI-H2085 | 0.82 | 0.869 | 0.832 | 0.824 | 0.754 | 0.731 | 0.71 | 0.739 | 0.926 | 0.654 | 0.737 | 0.537 | 0.602 | 0.769 | 0.516 | 1.11 | 1.07 | 0.788 | 1.13 | 0.66
NCI-H2087 | 1.16 | 1.23 | 1.27 | 1.12 | 0.982 | 1.14 | 1.09 | 1.34 | 1.36 | 0.877 | 0.379 | 0.457 | 0.286 | 0.508 | 0.27 | 1.55 | 1.38 | 0.735 | 0.794 | 0.465
NCI-H2126 | 1.23 | 1.14 | 1.22 | 1.15 | 1.06 | 0.814 | 0.741 | 0.768 | 0.85 | 0.693 | 0.721 | 0.718 | 0.619 | 0.8 | 0.602 | 0.988 | 0.963 | 0.673 | 0.968 | 0.691
NCI-H2170 | 1.06 | 0.971 | 1.05 | 0.934 | 0.957 | 0.309 | 0.238 | 0.278 | 0.275 | 0.234 | 0.86 | 0.63 | 0.569 | 0.678 | 0.432 | 0.914 | 0.982 | 0.771 | 0.938 | 0.393
NCI-H2347 | 0.977 | 0.993 | 0.903 | 0.723 | 0.863 | 1.12 | 0.977 | 0.745 | 0.921 | 1.03 | 0.444 | 0.412 | 0.443 | 0.424 | 0.393 | 0.858 | 0.788 | 0.609 | 0.462 | 0.305
NCI-H2405 | 1.09 | 0.994 | 1.01 | 1.05 | 0.859 | 1.16 | 1.03 | 1.05 | 1.32 | 1.1 | 0.672 | 0.597 | 0.592 | 0.676 | 0.547 | 0.798 | 0.792 | 0.545 | 0.875 | 0.688
NCI-H3122 | 0.898 | 0.942 | 0.96 | 0.974 | 0.889 | 1.02 | 0.985 | 0.983 | 1.01 | 0.967 | 1.24 | 1.03 | 0.603 | 1.03 | 0.755 | 1.05 | 1.12 | 0.846 | 1.04 | 1.02
PC-3 [JPC-3] | 0.999 | 1.01 | 1.02 | 1.06 | 0.961 | 0.455 | 0.425 | 0.463 | 0.52 | 0.385 | 0.832 | 0.701 | 0.554 | 0.663 | 0.656 | 0.933 | 0.944 | 0.618 | 0.826 | 0.611
PC-14 | 0.936 | 0.865 | 0.908 | 0.952 | 0.945 | 0.36 | 0.301 | 0.343 | 0.395 | 0.269 | 0.778 | 0.437 | 0.146 | 0.121 | 0.0877 | 0.471 | 0.324 | 0.141 | 0.144 | 0.14
RERF-LC-KJ | 0.885 | 0.842 | 0.878 | 0.846 | 0.909 | 0.886 | 0.783 | 0.8 | 0.821 | 0.863 | 0.715 | 0.523 | 0.51 | 0.548 | 0.575 | 1.11 | 1 | 0.896 | 1.13 | 0.959
